Assay results as given in ChEMBL document CHEMBL4818987, “Recent advances of podophyllotoxin/epipodophyllotoxin hybrids in anticancer activity, mode of action, and structure-activity relationship: An update (2010-2020)” (Eur J Med Chem, 2020).

Assays:
[1] = Resistance index, ratio of IC50 for human K562/ADR cells to IC50 for human K562 cells; type: functional
K562 = assay: Cytotoxicity against human K562 cells incubated for 72 hrs by CCK8 assay; type: functional, cell-based; details: K562, 72 h
K562/Adr = assay: Cytotoxicity against human K562/ADR cells incubated for 72 hrs by CCK8 assay; type: functional, cell-based
A549 [2] = assay: Antiproliferative activity against human A549 cells incubated for 24 hrs by MTT assay; type: functional, cell-based; details: A549, 24 h
HeLa [3] = assay: Antiproliferative activity against human HeLa cells incubated for 24 hrs by MTT assay; type: functional, cell-based
Calu-1 = assay: Antiproliferative activity against human Calu-1 cells incubated for 24 hrs by MTT assay; type: functional, cell-based; details: Calu-1, 24 h
HeLa [4] = assay: Antiproliferative activity against human HeLa cells incubated for 48 hrs by MTT assay; type: functional, cell-based
MCF7 = assay: Antiproliferative activity against human MCF7 cells incubated for 48 hrs by MTT assay; type: functional, cell-based; details: MCF7, 48 h
A549 [5] = assay: Antiproliferative activity against human A549 cells incubated for 48 hrs by MTT assay; type: functional, cell-based; details: A549, 48 h
HepG2 [6] = assay: Antiproliferative activity against human HepG2 cells incubated for 48 hrs by MTT assay; type: functional, cell-based; details: HepG2, 48 h
HCT-116 = assay: Antiproliferative activity against human HCT116 cells incubated for 3 days by MTT assay; type: functional, cell-based; details: HCT-116, 72 h
A549 [7] = assay: Antiproliferative activity against human A549 cells incubated for 3 days by MTT assay; type: functional, cell-based; details: A549, 72 h
HepG2 [8] = assay: Antiproliferative activity against human HepG2 cells incubated for 3 days by MTT assay; type: functional, cell-based; details: HepG2, 72 h

With `COc1cccc(/C=C/C(=O)O[C@H]2c3cc4c(cc3[C@@H](c3cc(OC)c(OC)c(OC)c3)[C@H]3C(=O)OC[C@@H]32)OCO4)c1` the “Ratio IC50” value [1] was 1.1, the IC50 (K562) was 11 nM and the IC50 (K562/Adr) was 11 nM.
Work on `COc1cc([C@@H]2c3cc4c(cc3[C@H](OC(=O)CCCCC3CCSC(c5ccc(Br)cc5)S3)[C@H]3COC(=O)[C@H]23)OCO4)cc(OC)c1OC` (some centres not stated) yielded an IC50 (A549 [2]) of 2680 nM, an IC50 (HeLa [3]) of 2680 nM and an IC50 (Calu-1) of 2680 nM.
`COc1cc([C@@H]2c3cc4c(cc3[C@H](O[C@H]3CC[C@@H](O)[C@H](C)O3)[C@H]3COC(=O)[C@H]23)OCO4)cc(OC)c1OC` gave an IC50 (HeLa [4]) of 41.6 nM, an IC50 (MCF7) of 41.6 nM and an IC50 (A549 [5]) of 41.6 nM. For the same molecule, the IC50 (HepG2 [6]) was 41.6 nM.
Molecule `COc1cc([C@@H]2c3cc4c(cc3[C@H](OC(=O)CCCCC3CCSC(c5ccc(Cl)cc5Cl)S3)[C@H]3COC(=O)[C@H]23)OCO4)cc(OC)c1OC` (some centres not stated) has an IC50 (A549 [2]) of 2680 nM, an IC50 (HeLa [3]) of 2680 nM and an IC50 (Calu-1) of 2680 nM.
With `COc1cc([C@@H]2c3cc4c(cc3[C@H](OC(=O)CCCCC3CCSC(c5ccccc5C)S3)[C@H]3COC(=O)[C@H]23)OCO4)cc(OC)c1OC` (some centres not stated) the IC50 (A549 [2]) was 2680 nM, the IC50 (HeLa [3]) was 2680 nM and the IC50 (Calu-1) was 2680 nM.
Molecule `COc1cc([C@@H]2c3cc4c(cc3[C@@H](O[C@@H]3CC[C@@H](O)[C@H](C)O3)[C@H]3COC(=O)[C@H]23)OCO4)cc(OC)c1O` has an IC50 (HeLa [4]) of 41.6 nM, an IC50 (MCF7) of 41.6 nM and an IC50 (A549 [5]) of 41.6 nM. The IC50 (HepG2 [6]) was 41.6 nM.
In the case of `COc1cc([C@@H]2c3cc4c(cc3[C@H](OC(=O)CCCCC3CCSC(c5cccc(Cl)c5Cl)S3)[C@H]3COC(=O)[C@H]23)OCO4)cc(OC)c1OC` (some centres not stated), the IC50 (A549 [2]) is reported as 2680 nM, the IC50 (HeLa [3]) is reported as 2680 nM and the IC50 (Calu-1) is reported as 2680 nM.
With `COc1cc([C@@H]2c3cc4c(cc3[C@H](OC(=O)/C=C/c3ccco3)[C@H]3COC(=O)[C@H]23)OCO4)cc(OC)c1OC` the “Ratio IC50” value [1] was 1.1, the IC50 (K562) was 11 nM and the IC50 (K562/Adr) was 11 nM.
For `CC[C@H]1O[C@H](O[C@@H]2c3cc4c(cc3[C@@H](c3cc(OC)c(O)c(OC)c3)[C@H]3C(=O)OC[C@@H]32)OCO4)CC[C@H]1O`, the IC50 (HeLa [4]) was 41.6 nM, the IC50 (MCF7) was 41.6 nM and the IC50 (A549 [5]) was 41.6 nM. It also gave an IC50 (HepG2 [6]) of 41.6 nM.
With `COc1cc([C@@H]2c3cc4c(cc3[C@H](OC(=O)/C=C/c3ccc(Cl)cc3)[C@H]3COC(=O)[C@H]23)OCO4)cc(OC)c1OC` the “Ratio IC50” value [1] was 1.1, the IC50 (K562) was 11 nM and the IC50 (K562/Adr) was 11 nM.
Work on `COc1cc([C@@H]2c3cc4c(cc3[C@@H](O[C@H]3CC[C@@H](O)[C@@H](C)O3)[C@H]3COC(=O)[C@H]23)OCO4)cc(OC)c1O` yielded an IC50 (HeLa [4]) of 41.6 nM, an IC50 (MCF7) of 41.6 nM and an IC50 (A549 [5]) of 41.6 nM. It also gave an IC50 (HepG2 [6]) of 41.6 nM.
With `COc1ccc(/C=C/C(=O)O[C@H]2c3cc4c(cc3[C@@H](c3cc(OC)c(OC)c(OC)c3)[C@H]3C(=O)OC[C@@H]32)OCO4)cc1` the “Ratio IC50” value [1] was 1.1, the IC50 (K562) was 11 nM and the IC50 (K562/Adr) was 11 nM.
Work on `COc1ccccc1C1SCCC(CCCCC(=O)O[C@H]2c3cc4c(cc3[C@@H](c3cc(OC)c(OC)c(OC)c3)[C@H]3C(=O)OC[C@@H]32)OCO4)S1` (some centres not stated) yielded an IC50 (A549 [2]) of 2680 nM, an IC50 (HeLa [3]) of 2680 nM and an IC50 (Calu-1) of 2680 nM.
Molecule `COc1cc([C@@H]2c3cc4c(cc3[C@H](OC(=O)CCCCC3CCSC(c5ccccc5Cl)S3)[C@H]3COC(=O)[C@H]23)OCO4)cc(OC)c1OC` (some centres not stated) has an IC50 (A549 [2]) of 2680 nM, an IC50 (HeLa [3]) of 2680 nM and an IC50 (Calu-1) of 2680 nM.
For `COc1cc([C@@H]2c3cc4c(cc3[C@H](OC(=O)/C=C/c3cccc(Cl)c3)[C@H]3COC(=O)[C@H]23)OCO4)cc(OC)c1OC`, the “Ratio IC50” value [1] was 1.1, the IC50 (K562) was 11 nM and the IC50 (K562/Adr) was 11 nM.
Work on `COc1cc([C@@H]2c3cc4c(cc3[C@@H](NC(=S)NC(=O)c3ccccc3I)[C@H]3COC(=O)[C@H]23)OCO4)cc(OC)c1OC` yielded an IC50 (HCT-116) of 100 nM, an IC50 (A549 [7]) of 100 nM and an IC50 (HepG2 [8]) of 100 nM.
With `COc1cc([C@@H]2c3cc4c(cc3[C@@H](O[C@@H]3CC[C@@H](O)[C@H](C(C)C)O3)[C@H]3COC(=O)[C@H]23)OCO4)cc(OC)c1O` the IC50 (HeLa [4]) was 41.6 nM, the IC50 (MCF7) was 41.6 nM and the IC50 (A549 [5]) was 41.6 nM. The IC50 (HepG2 [6]) was 41.6 nM.
Work on `COc1cc([C@@H]2c3cc4c(cc3[C@H](OC(=O)CCCCC3CCSC(c5ccc(C(C)C)cc5)S3)[C@H]3COC(=O)[C@H]23)OCO4)cc(OC)c1OC` (some centres not stated) yielded an IC50 (A549 [2]) of 2680 nM, an IC50 (HeLa [3]) of 2680 nM and an IC50 (Calu-1) of 2680 nM.
Work on `CCC[C@H]1O[C@@H](O[C@@H]2c3cc4c(cc3[C@@H](c3cc(OC)c(O)c(OC)c3)[C@H]3C(=O)OC[C@@H]32)OCO4)CC[C@H]1O` yielded an IC50 (HeLa [4]) of 41.6 nM, an IC50 (MCF7) of 41.6 nM and an IC50 (A549 [5]) of 41.6 nM. It also gave an IC50 (HepG2 [6]) of 41.6 nM.
Molecule `COc1cc([C@@H]2c3cc4c(cc3[C@@H](O[C@@H]3CC[C@@H](O)[C@@H](C(C)C)O3)[C@H]3COC(=O)[C@H]23)OCO4)cc(OC)c1O` has an IC50 (HeLa [4]) of 41.6 nM, an IC50 (MCF7) of 41.6 nM and an IC50 (A549 [5]) of 41.6 nM. It also gave an IC50 (HepG2 [6]) of 41.6 nM.
